Measured values from EP0421935B1, “Insect neuropeptides” (Novartis AG, priority 1989, dated 1999).
Bridge positions count the residues as written; N and C are the ends. Square brackets hold non-standard residues; d marks the D form. Peptide text beside a SMILES is read from it. pGlu = O=C1CC[C@@H](C(=O)O)N1

Tested on: corpora allata which have been surgically removed from newly molted 5 stadium Manduca sexta larvae
Experiment: in vitro JH biosynthesis assay (rate of [14C]JH biosynthesis by excised CC/CA complex)
Assay type: cell-based
Procedure: The biological activity of native LAS and LASA's is tested in an in vitro JH-biosynthesis assay using newly molted 5th stadium Manduca sexta larval CC/CA complex. The biological activity of each of the LAS and LASA preparations made according to the following examples is assayed according to a procedure essentially as described (except for media employed) by Pratt and Tobe, 1974 Life Sci vl4:575-586, which is incorporated by reference. This procedure measures the rate of biosynthesis of Juvenile Hormone (JH) by the corpora allata which have been surgically removed from newly molted 5 stadium Manduca sexta larvae. One corpus cardiacum-corpus allatum complex is maintained in 100 µl of TC-199 medium (components of which are shown below) and Hank's salts, and is shaken using a mechanical shaker. The sample to be tested for LAS-like activity is dried and dissolved in TC-199 medium. Then an equal volume of TC-199 medium containing [^14C] methionine is added, and allowed to incubate for 4 hours. […] is extracted from the medium using iso-octane and the extract is assayed by liquid scintillation counting. The rate of biosynthesis by glands exposed to the sample is compared to the rate observed for control glands. The presence of LAS or LASA causes a decrease in the rate of biosynthesis.

Row | Compound | level of activity (amidated carboxy terminus compared with Native LAS with free carboxy terminus, the test is not given) | allatostatin activity in bioassay (crude oxidized synthetic peptide, before reversed phase LC purification)
1 | CC[C@H](C)[C@@H]1NC(=O)[C@@H]2CCCN2C(=O)[C@H](CC(N)=O)NC(=O)[C@H](Cc2ccccc2)NC(=O)[C@H](Cc2ccc(O)cc2)NC(=O)[C@@H](NC(=O)[C@H](CCC(N)=O)NC(=O)[C@H](CCCNC(=N)N)NC(=O)[C@H](Cc2ccccc2)NC(=O)[C@H](CCCNC(=N)N)NC(=O)[C@@H](NC(=O)[C@@H]2CCC(=O)N2)C(C)C)CSSC[C@@H](C(=O)N[C@@H](Cc2ccccc2)C(N)=O)NC(=O)[C@H](CO)NC1=O [amidated form] ([pGlu]VRFRQCYFNPISCF-NH2; disulfide 7-14) | same level of activity | 
2 | CC[C@H](C)[C@@H]1NC(=O)[C@@H]2CCCN2C(=O)[C@H](CC(N)=O)NC(=O)[C@H](Cc2ccccc2)NC(=O)[C@H](Cc2ccc(O)cc2)NC(=O)[C@@H](NC(=O)[C@H](CCC(N)=O)NC(=O)[C@H](CCCNC(=N)N)NC(=O)[C@H](Cc2ccccc2)NC(=O)[C@H](CCCNC(=N)N)NC(=O)[C@@H](NC(=O)[C@@H]2CCC(=O)N2)C(C)C)CSSC[C@@H](C(=O)N[C@@H](Cc2ccccc2)C(=O)O)NC(=O)[C@H](CO)NC1=O [LAS, pGlu-Val-Arg-Phe-Arg-Gln-Cys-Tyr-Phe-Asn-Pro-Ile-Ser-Cys-Phe-OH] ([pGlu]VRFRQCYFNPISCF-OH; disulfide 7-14) |  | exhibits allatostatin activity
